The results in this text go back to patent US10208068B2, “Macrocycles as factor XIa inhibitors” (BRISTOL-MYERS SQUIBB COMPANY, priority 2011, dated 2019).

The conditions of data set [1]: 12-membered ring.
The target of a further data set is human Factor XIa (Homo sapiens (Human), UniProt P03951). Nature of the data set: Factor XIa enzyme inhibition assay (chromogenic substrate S-2366). The data set is classed as biochemical. The following applies: purified human Factor XIa 25-200 pM, substrate S-2366, 50 mM HEPES pH 7.4.
Chain of human Factor XIa (P03951 388-625): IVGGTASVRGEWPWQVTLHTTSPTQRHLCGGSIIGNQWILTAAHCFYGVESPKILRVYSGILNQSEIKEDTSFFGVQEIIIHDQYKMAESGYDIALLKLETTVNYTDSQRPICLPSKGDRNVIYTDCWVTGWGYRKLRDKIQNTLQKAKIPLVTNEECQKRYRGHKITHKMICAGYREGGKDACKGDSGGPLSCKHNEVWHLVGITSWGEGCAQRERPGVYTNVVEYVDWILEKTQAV
Chain of human Factor XIa (P03951 19-387 partner): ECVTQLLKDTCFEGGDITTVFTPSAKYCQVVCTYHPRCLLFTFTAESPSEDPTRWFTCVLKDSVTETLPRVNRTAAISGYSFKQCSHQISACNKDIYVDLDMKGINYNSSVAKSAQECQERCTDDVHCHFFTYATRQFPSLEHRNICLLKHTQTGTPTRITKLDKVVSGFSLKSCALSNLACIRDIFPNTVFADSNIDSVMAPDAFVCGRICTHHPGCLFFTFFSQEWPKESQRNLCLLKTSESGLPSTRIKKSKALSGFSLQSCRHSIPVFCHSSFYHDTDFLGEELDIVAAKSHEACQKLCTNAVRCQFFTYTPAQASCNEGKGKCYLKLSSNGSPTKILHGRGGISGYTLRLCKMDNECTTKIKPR
The mark [2] stands for this setting: from C=CC[C@H](NC(=O)OC(C)(C)C)c1cc(-c2ccc(NC(=O)OC)cc2NC(=O)C(C=C)CC)ccn1, rcm bond, Grubbs II, microwave, DCE, 120.0 °C, 0.42 h.

Where “and” joins values, the source holds several entries; their conditions need not be identical. Equal entries are not always repeated. Structures can show the parent of a compound that is named as a salt. Where two headings read alike, the source gives them in different places. Some results are limits rather than exact numbers.

Regarding `CCOC(=O)C1C/C=C/C[C@H](NC(=O)OC(C)(C)C)c2cc(ccn2)-c2ccc(NC(=O)OC)cc2N1` (stereo partly drawn), the ring closure, isolated yield in data set [1] (from C=CCC(Nc1cc(NC(=O)OC)ccc1-c1ccnc([C@H](CC=C)NC(=O)OC(C)(C)C)c1)C(=O)OCC, rcm bond, Grubbs (as described before)) was 47%.
As for `COC(=O)Nc1ccc(-c2ccnc([C@H](CCCO)NC(=O)OC(C)(C)C)c2)c(N)c1`, the ring closure, isolated yield in data set [1] (the molecule shown is the open-chain precursor, other bond, phosgene, then TEA/DMAP, DCM, 3.3 mM, 2 steps) is 57%.
In turn, `COC(=O)Nc1ccc2c(c1)NC(=O)C(C)/C=C/C[C@H](NC(=O)OC(C)(C)C)c1cc-2nnc1Cl` (stereo partly drawn) yielded a ring closure, isolated yield in data set [1] (from C=CC[C@H](NC(=O)OC(C)(C)C)c1cc(-c2ccc(NC(=O)OC)cc2NC(=O)C(C)C=C)nnc1Cl, rcm bond, Grubbs II (0.4 eq), 1,2-dichloroethane, 4.7 mM, 120.0 °C, 0.5 h) of 22%.
`COC(=O)Nc1ccc2c(c1)NC(=O)C(C)C=CC[C@H](NC(=O)OC(C)(C)C)c1cc-2cc(=O)[nH]1` (stereo partly drawn): the ring closure, yield after HPLC (from C=CC[C@H](NC(=O)OC(C)(C)C)c1cc(-c2ccc(NC(=O)OC)cc2NC(=O)C(C)C=C)cc(=O)[nH]1, rcm bond, 12-membered ring, Grubbs II (0.4 eq), microwave, DCE, 18.0 mM, 120.0 °C, 0.5 h) was 19% and 35%.
For the compound `COC(=O)Nc1ccc2c(c1)NC(=O)C/C=C/C(C)[C@H](NC(=O)OC(C)(C)C)c1cc-2ccn1` (stereo partly drawn), the ring closure, yield after HPLC (from C=CCC(=O)Nc1cc(NC(=O)OC)ccc1-c1ccnc([C@@H](NC(=O)OC(C)(C)C)C(C)C=C)c1, rcm bond, 12-membered ring, Grubbs II, toluene, 9.0 mM, 160.0 °C, 0.33 h) came to 12%.
`COC(=O)Nc1ccc2c(c1)NC(=O)C/C=C/C[C@H](NC(=O)OC(C)(C)C)c1cc-2ccn1` displayed a ring closure, isolated yield in data set [1] (from C=CCC(=O)Nc1cc(NC(=O)OC)ccc1-c1ccnc([C@H](CC=C)NC(=O)OC(C)(C)C)c1, rcm bond, Grubbs II (0.4 eq)/pTsOH, DCM, 4.0 mM, 40.0 °C, 3.0 h) of 26%.
The compound `COC(=O)Nc1ccc2c(c1)NC(=O)CC/C=C/C[C@H](NC(=O)OC(C)(C)C)c1cc-2cc(=O)[nH]1` registered a ring closure, yield after HPLC (from C=CCCC(=O)Nc1cc(NC(=O)OC)ccc1-c1cc([C@H](CC=C)NC(=O)OC(C)(C)C)[nH]c(=O)c1, rcm bond, 13-membered ring, Grubbs II, microwave, DCE, 18.9 mM, 120.0 °C, 0.5 h) of 26%.
`COC(=O)Nc1ccc2c(c1)NC(=O)CC/C=C/C[C@H](NC(=O)OC(C)(C)C)c1nc-2cn1COCC[Si](C)(C)C` gave a ring closure, yield after HPLC (from C=CCCC(=O)Nc1cc(NC(=O)OC)ccc1-c1cn(COCC[Si](C)(C)C)c([C@H](CC=CN)C(=O)OC(C)(C)C)n1, rcm bond, 13-membered ring) of 42%.
Regarding `COC(=O)Nc1ccc2c(c1)NC(=O)CCOC[C@H](NC(=O)OC(C)(C)C)c1nc-2cn1COCC[Si](C)(C)C`, the ring closure, yield after HPLC (from COC(=O)Nc1ccc(-c2cn(COCC[Si](C)(C)C)c([C@H](COCCC(=O)O)NC(=O)OC(C)(C)C)n2)c(N)c1, amide bond, 12-membered ring, BOP/DMAP/DIEA, DMF, 1.0 mM, 25.0 °C, 16.0 h) stood at 75%.
Compound `COC(=O)Nc1ccc2c(c1)NC(=O)COCC[C@H](NC(=O)OCc1ccccc1)c1cc-2ccn1` came in with a ring closure, yield after HPLC (from COC(=O)Nc1ccc(-c2ccnc([C@H](CCOCC(=O)O)NC(=O)OCc3ccccc3)c2)c(N)c1, amide bond, 12-membered ring, BOP/DMAP/DIEA, DCM/DMF, 2.8 mM, 25.0 °C, 6.0 h) of 27%.
Take `COC(=O)Nc1ccc2c(c1)NC(=O)[C@H](C)/C=C/C[C@H](NC(=O)OC(C)(C)C)c1cc-2ccn1`: the ring closure, isolated yield in data set [1] (from C=CC[C@H](NC(=O)OC(C)(C)C)c1cc(-c2ccc(NC(=O)OC)cc2NC(=O)C(C)C=C)ccn1, rcm bond, Grubbs II (0.1 eq)/pTsOH, DCM, 4.0 mM, 40.0 °C, 6.0 h) stood at 25%; in data set [1] (from C=CC[C@H](NC(=O)OC(C)(C)C)c1cc(-c2ccc(NC(=O)OC)cc2NC(=O)[C@H](C)C=C)ccn1, rcm bond, Grubbs II (0.2 eq)/pTsOH, DCM, 11.8 mM, 4.0 h), 71%.
For the compound `COC(=O)Nc1ccc2c(c1)NC(=O)[C@H](C)C=CC[C@H](NC(=O)OC(C)(C)C)c1nc-2cn1COCC[Si](C)(C)C`, the ring closure, isolated yield in data set [1] (from C=CC[C@H](NC(=O)OC(C)(C)C)c1nc(-c2ccc(NC(=O)OC)cc2NC(=O)[C@H](C)C=C)cn1COCC[Si](C)(C)C, rcm bond, Grubbs II (0.4 eq)/pTsOH, DCM, 10.0 mM, 40.0 °C, 21.5 h) was 41%.
For the compound `COC(=O)Nc1ccc2c(c1)NC(=O)[C@H](C)CCC[C@H](NC(=O)OC(C)(C)C)c1nc-2cn1COCC[Si](C)(C)C`, the ring closure, yield after HPLC (from COC(=O)Nc1ccc(-c2cn(COCC[Si](C)(C)C)c([C@H](CCCC(C)C(=O)O)NC(=O)OC(C)(C)C)n2)c(N)c1, amide bond, 12-membered ring, BOP/DMAP/DIEA, DCM/DMF, 3.4 mM, 50.0 °C, 96.0 h) was found to be 22%.
With `C[C@@H]1/C=C/C[C@H](NC(=O)OC(C)(C)C)c2cn(COCC[Si](C)(C)C)c(n2)-c2ccc([N+](=O)[O-])cc2NC1=O`, in data set [1] (from C=CC[C@H](NC(=O)OC(C)(C)C)c1cn(COCC[Si](C)(C)C)c(-c2ccc([N+](=O)[O-])cc2NC(=O)[C@H](C)C=C)n1, rcm bond, Grubbs II (0.287 mmol), DCM, 16.0 h), the ring closure, isolated yield was determined as 56%.
In turn, `CCC1/C=C/C[C@H](NC(=O)OC(C)(C)C)c2cc(ccn2)-c2ccc(NC(=O)OC)cc2NC1=O` (single isomer, unassigned; diastereomer a) yielded a ring closure, isolated yield in data set [1] (setting [2]) of 10%.
Still for that read-out and setting: with `CCC1/C=C/C[C@H](NC(=O)OC(C)(C)C)c2cc(ccn2)-c2ccc(NC(=O)OC)cc2NC1=O` (single isomer, unassigned; diastereomer b) the figure was 16%.
By Ki is commonly meant a measure of affinity in units of concentration, obtained from inhibition or displacement. The low end stands for higher affinity, the high end for lower affinity. Consider `Cc1c(C(=O)N[C@H]2CCC[C@H](C)C(=O)Nc3cc(-c4ccn[nH]4)ccc3-c3ccnc2c3)nnn1-c1cccc(Cl)c1F` [Example 165, 1-(3-Chloro-2-fluorophenyl)-5-methyl-N-[(10S,14S)-10-methyl-9-oxo-5-(1H-pyrazol-5-yl)-8,16-diazatricyclo[13.3.1.0^2,7]nonadeca-1(19),2(7),3,5,15,17-hexaen-14-yl]-1H-1,2,3-triazole-4-carboxamide, TFA salt], for which affinity on human Factor XIa was put at a Ki of 5.08 µM.
On the same count and under the same terms, with `Cc1c(C(=O)N[C@H]2CCC[C@@H](C)C(=O)Nc3cc(C(N)=O)ccc3-c3ccnc2c3)cnn1-c1cccc(Cl)c1F` [Example 190, (10R,14S)-14-C-1-(3-Chloro-2-fluorophenyl)-5-methyl-1H-pyrazole-4-10-methyl-9-oxo-8,16-diazatricyclo[13.3.1.0^2,7]nonadeca-1(19),2(7),3,5,15,17-hexaene-5,14-diamido, TFA salt] the figure was 0.00665 µM; with `Cc1c(C(=O)N[C@H]2CCCCC(=O)Nc3cc(C(=O)N(C)C)ccc3-c3ccnc2c3)cnn1-c1cccc(Cl)c1F` [Example 193, (14S)-14-C-1-(3-Chloro-2-fluorophenyl)-5-methyl-1H-pyrazole-4-5-N,5-N-dimethyl-9-oxo-8,16-diazatricyclo[13.3.1.0^2,7]nonadeca-1(19),2(7),3,5,15,17-hexaene-5,14-diamido, TFA salt], 2.98 µM; with `COC(=O)Nc1ccc2c(c1)NC(=O)[C@H](C)CCC[C@H](NC(=O)c1nnn(-c3c(F)ccc(Cl)c3F)c1C)c1nc-2c[nH]1` [Example 207], 0.153 µM.
With `COC(=O)Nc1ccc2c(c1)NC(=O)[C@H](C)CCC[C@H](NC(=O)c1cnn(-c3cccc(Cl)c3F)c1C)c1cc(OC)nc-2c1` [Example 227], at human Factor XIa, the Ki was under 0.005 µM.
Still for that read-out and setting: with `COC(=O)Nc1ccc2c(c1)NC(=O)[C@@H](C)CCC[C@@H](NC(=O)c1cnn(-c3cccc(Cl)c3F)c1C)c1cc-2ncc1F` [Example 232] the figure was 4.29 µM; with `COC(=O)Nc1ccc2c(c1)NC(=O)CCCC[C@H](NC(=O)c1cnn(-c3cccc(Cl)c3F)c1C)c1cc-2ccn1` [Example 234], under 0.005 µM; with `COC(=O)Nc1ccc2c(c1)NC(=O)[C@H](C)CCC[C@H](NC(=O)c1cnn(-c3cccc(Cl)c3F)c1C)c1cc-2cnn1` [Example 246], under 0.005 µM.
The same measure, in the same setting: in the case of `COCCOC(=O)Nc1ccc2c(c1)NC(=O)[C@H](C)CCC[C@H](NC(=O)c1ncn(-c3cccc(Cl)c3F)c1C)c1cc-2ccn1` [Example 251] it was under 0.005 µM; in that of `COC(=O)Nc1ccc2c(c1)NC(=O)[C@H](C)CCC[C@H](NC(=O)c1ncn(-c3cccc(Cl)c3F)c1C)c1cc-2cc(=O)[nH]1` [Example 256], under 0.005 µM.
On human Factor XIa, `COC(=O)Nc1ccc2c(c1)NC(=O)[C@H](C)CCC[C@H](NC(=O)c1ncn(-c3cccc(Cl)c3F)c1C)c1cc-2cc(OC)n1` [Example 257] had a Ki of under 0.005 µM.
On to `COC(=O)Nc1ccc2c(c1)NC(=O)[C@H](C)CCC[C@H](NC(=O)c1cnn(-c3cccc(Cl)c3F)c1C)c1c[nH]c-2n1` [Example 262], for which, at human Factor XIa, the Ki amounted to 0.0136 µM.
The same measure, in the same setting: with `COC(=O)Nc1ccc2c(c1)NC(=O)[C@H](C)CCC[C@H](NC(=O)c1ncn(-c3cccc(Cl)c3F)c1C)c1c[nH]c-2n1` [Example 263] the figure was 0.0333 µM.
